Measurements taken from ChEMBL document CHEMBL1201862, “PubChem BioAssay data set” (2004).
Calls of active or inactive are those of the source.

Experiments:
[1] = target: T1, Microphthalmia-associated transcription factor (Homo sapiens, UniProt O75030); assay: TRPM1 promoter luciferase signal decrease, dose response, MITF inhibitor project, cell-based, SK-MEL-5, cherry-picked, set 3 (AID 493073); assay type: functional
T1 sequence (O75030 whole entry): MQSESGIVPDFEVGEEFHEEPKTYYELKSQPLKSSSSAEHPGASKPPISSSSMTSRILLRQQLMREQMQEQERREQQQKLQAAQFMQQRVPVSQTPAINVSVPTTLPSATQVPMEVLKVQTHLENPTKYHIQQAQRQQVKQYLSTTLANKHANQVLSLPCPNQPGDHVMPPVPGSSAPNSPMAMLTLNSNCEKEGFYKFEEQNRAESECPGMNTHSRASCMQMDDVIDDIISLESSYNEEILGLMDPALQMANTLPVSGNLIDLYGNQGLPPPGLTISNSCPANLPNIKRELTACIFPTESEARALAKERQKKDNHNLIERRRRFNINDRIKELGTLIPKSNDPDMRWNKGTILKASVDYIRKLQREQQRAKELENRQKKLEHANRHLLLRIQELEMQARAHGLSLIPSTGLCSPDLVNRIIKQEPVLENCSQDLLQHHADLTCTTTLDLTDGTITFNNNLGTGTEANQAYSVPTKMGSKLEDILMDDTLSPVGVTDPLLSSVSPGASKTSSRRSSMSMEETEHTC

[2] = cells; assay type: functional, cell-based
[3] = luciferase reporter signal reduction – luminescence, H4-C neuroglioblastoma cells, dose response (AID 2458); assay type: functional, cell-based;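 further: H4 neuroglioblastoma cells stably carrying a luciferase reporter gene fusion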
[4] = inhibitors of firefly luciferase expression or activity, dose response, H4 neuroglioma cells, luminescence (AID 1990); assay type: functional, cell-based
[5] = inhibitors of SNCA 5'UTR-driven reporter translation, confirmation, H4 neuroglioma cells, luminescence (AID 1988); assay type: functional, cell-based
[6] = Luminescence Cell-Based Dose Response HTS to Identify Inhibitors of 5'UTR Stem-Loop Driven Prion Protein mRNA Translation in H4 Neuroglioblastoma Cells. [Related pubchem assays: 1827 (Project Summary), 1813 (Primary HTS)]; assay type: functional
[7] = inhibitors of SNCA 5'UTR-driven translation, confirmation, luminescence, H4 neuroglioblastoma cells, dose confirmation (AID 2454); assay type: functional, cell-based;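 further: H4 neuroglioblastoma cells carrying an alpha-synuclein 5'UTR luciferase reporter; potency for inhibition of the luciferase signal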
[8] = target: T2, fMet-Leu-Phe receptor (Homo sapiens, UniProt P21462); assay: FPR ligands, dose response (AID 519); assay type: functional
T2 sequence (P21462 whole entry): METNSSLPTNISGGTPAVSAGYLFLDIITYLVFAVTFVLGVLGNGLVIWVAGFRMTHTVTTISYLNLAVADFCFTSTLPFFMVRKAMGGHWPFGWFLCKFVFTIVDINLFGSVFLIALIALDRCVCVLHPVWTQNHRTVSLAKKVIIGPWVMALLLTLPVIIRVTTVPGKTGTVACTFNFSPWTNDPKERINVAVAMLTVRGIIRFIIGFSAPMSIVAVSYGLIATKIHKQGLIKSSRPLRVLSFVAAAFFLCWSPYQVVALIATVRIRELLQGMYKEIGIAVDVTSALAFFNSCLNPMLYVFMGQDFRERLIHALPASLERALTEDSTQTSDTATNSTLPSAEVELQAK

[9] = target: T3, Zinc finger protein mex-5 (Caenorhabditis elegans, UniProt Q9XUB2); assay: MEX-5/TCR-2 RNA interaction inhibitors, dose response, biochemical, C. elegans, fluorescence polarization (AID 1960)
T3 sequence (Q9XUB2 whole entry): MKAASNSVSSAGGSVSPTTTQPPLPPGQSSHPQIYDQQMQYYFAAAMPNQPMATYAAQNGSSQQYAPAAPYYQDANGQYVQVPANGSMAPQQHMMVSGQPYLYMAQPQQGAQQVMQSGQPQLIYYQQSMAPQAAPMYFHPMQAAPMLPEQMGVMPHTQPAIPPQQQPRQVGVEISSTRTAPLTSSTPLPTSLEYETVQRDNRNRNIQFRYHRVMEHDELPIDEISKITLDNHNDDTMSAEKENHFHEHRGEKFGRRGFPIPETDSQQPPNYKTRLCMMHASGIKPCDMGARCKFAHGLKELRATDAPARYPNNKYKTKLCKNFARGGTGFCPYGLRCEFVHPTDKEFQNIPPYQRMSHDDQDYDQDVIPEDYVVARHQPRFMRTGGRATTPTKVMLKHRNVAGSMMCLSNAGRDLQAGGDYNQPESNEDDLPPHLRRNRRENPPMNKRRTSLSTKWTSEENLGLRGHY

[10] = tested on: HeLa; assay: HeLa cell cytotoxicity, dose response, cytotoxicity control, 24 h, cherry-picked samples (AID 504726); assay type: functional, cell-based; settings: Homo sapiens;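 further: potency for cytotoxicity as loss of luminescence signal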
[11] = target: T4, RNA-binding protein pos-1 (Caenorhabditis elegans, UniProt G5EF15); assay: inhibitors of POS-1/mex-3 RNA binding, dose response, biochemical, fluorescence polarization (AID 1964);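 further: purified POS-1 fused to maltose binding protein made in E. coli; potency of compounds blocking POS-1 binding to fluorescent RNA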
T4 sequence (G5EF15 whole entry): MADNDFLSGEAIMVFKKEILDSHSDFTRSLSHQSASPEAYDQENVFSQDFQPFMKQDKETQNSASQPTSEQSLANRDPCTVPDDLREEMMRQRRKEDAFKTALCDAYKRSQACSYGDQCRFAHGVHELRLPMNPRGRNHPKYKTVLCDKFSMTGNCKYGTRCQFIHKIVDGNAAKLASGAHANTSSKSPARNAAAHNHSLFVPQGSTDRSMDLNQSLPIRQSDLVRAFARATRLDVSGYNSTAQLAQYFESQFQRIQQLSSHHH

[12] = target: T5, ORF 73 (Human herpesvirus 8, UniProt O40947); assay: inhibitors of C-LANA binding to LBS DNA, dose response, biochemical, fluorescence polarization, cherry-picked samples (AID 504725); parameters: species or system Human gammaherpesvirus 8;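 further: fluorescence polarization of a labeled DNA duplex reporting LANA DNA binding; potency is for inhibitors that block LANA binding to the DNA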
T5 sequence (O40947 whole entry): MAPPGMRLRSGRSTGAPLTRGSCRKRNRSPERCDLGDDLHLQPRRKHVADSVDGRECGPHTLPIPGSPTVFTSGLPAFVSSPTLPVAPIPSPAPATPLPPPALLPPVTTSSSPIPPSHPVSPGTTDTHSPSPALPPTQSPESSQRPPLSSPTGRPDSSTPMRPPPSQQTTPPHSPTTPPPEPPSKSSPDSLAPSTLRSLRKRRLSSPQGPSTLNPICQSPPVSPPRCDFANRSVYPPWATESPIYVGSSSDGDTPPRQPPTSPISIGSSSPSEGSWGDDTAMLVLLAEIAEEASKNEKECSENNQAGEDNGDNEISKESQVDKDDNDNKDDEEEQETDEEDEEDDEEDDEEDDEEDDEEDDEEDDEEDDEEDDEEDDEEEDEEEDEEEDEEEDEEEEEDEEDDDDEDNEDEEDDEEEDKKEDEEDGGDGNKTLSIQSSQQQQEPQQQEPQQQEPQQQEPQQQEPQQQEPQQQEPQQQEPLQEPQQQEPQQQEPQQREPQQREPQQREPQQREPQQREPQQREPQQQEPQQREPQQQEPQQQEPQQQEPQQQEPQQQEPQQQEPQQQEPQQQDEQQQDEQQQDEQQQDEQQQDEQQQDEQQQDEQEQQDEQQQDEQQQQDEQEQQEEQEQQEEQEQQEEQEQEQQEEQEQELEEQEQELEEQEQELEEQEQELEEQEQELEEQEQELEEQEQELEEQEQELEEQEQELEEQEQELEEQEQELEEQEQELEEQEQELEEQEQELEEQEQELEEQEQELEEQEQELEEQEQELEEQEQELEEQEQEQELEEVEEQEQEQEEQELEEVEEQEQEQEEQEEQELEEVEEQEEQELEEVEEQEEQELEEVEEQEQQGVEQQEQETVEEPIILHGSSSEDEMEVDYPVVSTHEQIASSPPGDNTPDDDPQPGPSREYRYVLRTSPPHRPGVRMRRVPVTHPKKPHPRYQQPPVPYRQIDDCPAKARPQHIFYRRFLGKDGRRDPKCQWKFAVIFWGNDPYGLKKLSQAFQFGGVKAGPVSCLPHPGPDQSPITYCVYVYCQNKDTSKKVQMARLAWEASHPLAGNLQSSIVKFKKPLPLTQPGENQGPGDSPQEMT

[13] = cytotoxicity in HEK-293T cells, dose response, cytotoxicity control for BCR NF-kB inhibitor project, luminescence, B-cell screen hits (AID 489021); assay type: functional, cell-based;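 further: HEK-293T cells carrying an NF-kB luciferase reporter; cells exposed to compound for about 14 hours before viability readout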
[14] = target: Peroxisome proliferator-activated receptor gamma/Nuclear receptor coactivator 2 (Homo sapiens, UniProt P37231); assay: (§1) TR-FRET dose response biochemical High Throughput Screening assay for agonists of the steroid receptor coactivator 2 (SRC-2) recruitment by the peroxisome proliferator-activated receptor gamma (PPAR gamma): non-selective agonists. [Related pubchem assays: 1297, 1032 ]; assay type: functional
[15] = target: Peroxisome proliferator-activated receptor gamma/Nuclear receptor coactivator 3 (Homo sapiens, UniProt P37231); assay: as §1, with “3 (SRC-3)” for “2 (SRC-2)”, “1301 (Confirmation screen.), 1048 (Primary screen.)]” for “1297, 1032 ]”; assay type: functional
[16] = target: Peroxisome proliferator-activated receptor gamma/Nuclear receptor coactivator 1 (Homo sapiens, UniProt P37231); assay: as §1, with “1 (SRC-1)” for “2 (SRC-2)”, “assays (depositor defined):AID1300, AID1808, AID504735, AID631]” for “assays: 1297, 1032 ]”; assay type: protein assay
[17] = target: Large T antigen (Simian virus 40, UniProt P03070); assay type: functional, Betapolyomavirus macacae;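 further: Confirmatory-stage PubChem screen for compounds that inhibit SV40 T antigen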
[18] = cytotoxicity in HEK-293T cells, dose response, cytotoxicity control for TCR NF-kB inhibitor project, luminescence, T-cell screen hits (AID 489026); assay type: functional, cell-based;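 further: cells exposed to compound about 14 hours before the viability readout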
[19] = target: Eukaryotic translation initiation factor 4E (Mus musculus, UniProt P63073); assay: eIF4E–eIF4G protein interaction inhibitors, dose response, biochemical, TR-FRET (AID 855); assay type: functional;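 further: potency for disrupting eIF4E binding to eIF4GI seen as loss of FRET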
[20] = target: T6, Carboxy-terminal domain RNA polymerase II polypeptide A small phosphatase 1 (Homo sapiens, UniProt Q9GZU7); assay: inhibitors of CTDSP1, concentration-response testing, biochemical assay, absorbance-based, actives from ultra-high-throughput screening (AID 540297); assay type: functional
T6 sequence (Q9GZU7 whole entry): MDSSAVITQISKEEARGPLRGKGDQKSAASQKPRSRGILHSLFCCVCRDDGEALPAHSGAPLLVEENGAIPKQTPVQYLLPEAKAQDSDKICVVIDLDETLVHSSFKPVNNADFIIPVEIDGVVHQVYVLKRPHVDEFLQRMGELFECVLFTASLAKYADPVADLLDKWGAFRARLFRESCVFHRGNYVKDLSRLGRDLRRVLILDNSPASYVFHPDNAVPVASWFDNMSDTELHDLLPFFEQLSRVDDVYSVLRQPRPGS

[21] = A Cell Based Secondary Assay To Explore Cytotoxicity of Compounds that Sensitize Mycobacterium Tuberculosis to Beta-Lactam Antibiotics.; assay type: functional

Peroxisome proliferator-activated receptor gamma/Nuclear receptor coactivator 2, sequence (P37231 whole entry): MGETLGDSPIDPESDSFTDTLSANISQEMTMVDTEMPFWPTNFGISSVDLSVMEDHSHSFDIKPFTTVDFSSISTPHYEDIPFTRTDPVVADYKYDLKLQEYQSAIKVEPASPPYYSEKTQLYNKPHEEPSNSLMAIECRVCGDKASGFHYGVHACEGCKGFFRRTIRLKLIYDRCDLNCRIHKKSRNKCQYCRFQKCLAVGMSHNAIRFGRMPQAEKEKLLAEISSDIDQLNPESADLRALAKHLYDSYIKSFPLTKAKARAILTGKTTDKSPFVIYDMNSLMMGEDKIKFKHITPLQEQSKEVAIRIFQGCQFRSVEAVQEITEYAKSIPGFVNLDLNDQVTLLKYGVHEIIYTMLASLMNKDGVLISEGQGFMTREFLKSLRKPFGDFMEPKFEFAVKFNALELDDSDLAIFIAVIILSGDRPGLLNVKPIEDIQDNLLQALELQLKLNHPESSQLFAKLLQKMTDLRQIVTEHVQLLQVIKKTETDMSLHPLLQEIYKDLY
Peroxisome proliferator-activated receptor gamma/Nuclear receptor coactivator 2, sequence (Q15596 whole entry, further chain): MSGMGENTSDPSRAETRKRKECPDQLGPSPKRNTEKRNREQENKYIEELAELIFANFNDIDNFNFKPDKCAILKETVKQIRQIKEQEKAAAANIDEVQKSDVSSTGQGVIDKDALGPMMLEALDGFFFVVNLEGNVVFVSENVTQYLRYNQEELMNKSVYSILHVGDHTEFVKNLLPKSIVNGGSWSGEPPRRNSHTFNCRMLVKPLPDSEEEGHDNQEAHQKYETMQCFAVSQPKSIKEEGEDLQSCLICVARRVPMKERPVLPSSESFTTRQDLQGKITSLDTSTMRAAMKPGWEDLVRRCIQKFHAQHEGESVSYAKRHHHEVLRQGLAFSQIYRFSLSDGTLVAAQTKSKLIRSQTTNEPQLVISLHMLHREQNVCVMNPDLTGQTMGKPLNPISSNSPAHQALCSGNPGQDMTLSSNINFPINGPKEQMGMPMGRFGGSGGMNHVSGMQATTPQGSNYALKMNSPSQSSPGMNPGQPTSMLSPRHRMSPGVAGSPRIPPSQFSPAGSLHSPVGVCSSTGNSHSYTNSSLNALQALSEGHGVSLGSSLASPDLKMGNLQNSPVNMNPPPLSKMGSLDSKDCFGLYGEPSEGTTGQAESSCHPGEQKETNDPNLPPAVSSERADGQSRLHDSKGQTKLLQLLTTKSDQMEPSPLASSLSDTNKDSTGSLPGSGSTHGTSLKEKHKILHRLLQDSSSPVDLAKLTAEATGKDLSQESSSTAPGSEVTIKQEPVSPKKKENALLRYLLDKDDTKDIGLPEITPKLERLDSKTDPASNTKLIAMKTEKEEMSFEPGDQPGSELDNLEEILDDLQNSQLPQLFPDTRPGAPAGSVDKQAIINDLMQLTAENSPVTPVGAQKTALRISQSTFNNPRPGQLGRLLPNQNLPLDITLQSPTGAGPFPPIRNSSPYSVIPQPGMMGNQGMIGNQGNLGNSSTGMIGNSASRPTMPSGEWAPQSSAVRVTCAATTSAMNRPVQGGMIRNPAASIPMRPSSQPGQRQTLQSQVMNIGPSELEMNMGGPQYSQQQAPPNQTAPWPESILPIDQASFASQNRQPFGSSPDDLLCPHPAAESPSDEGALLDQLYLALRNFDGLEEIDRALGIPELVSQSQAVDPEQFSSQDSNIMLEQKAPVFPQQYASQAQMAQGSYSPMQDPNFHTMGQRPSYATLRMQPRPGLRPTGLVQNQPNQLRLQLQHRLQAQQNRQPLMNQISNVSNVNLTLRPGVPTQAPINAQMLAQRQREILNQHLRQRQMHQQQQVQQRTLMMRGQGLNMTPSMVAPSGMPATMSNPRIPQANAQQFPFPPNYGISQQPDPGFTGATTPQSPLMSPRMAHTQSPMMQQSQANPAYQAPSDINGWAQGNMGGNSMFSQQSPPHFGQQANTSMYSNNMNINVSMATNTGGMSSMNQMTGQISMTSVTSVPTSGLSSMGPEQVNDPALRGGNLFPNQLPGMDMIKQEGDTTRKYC
Peroxisome proliferator-activated receptor gamma/Nuclear receptor coactivator 1, sequence (P37231 whole entry): as the sequence (P37231 whole entry) above
Peroxisome proliferator-activated receptor gamma/Nuclear receptor coactivator 1, sequence (Q15788 whole entry, further chain): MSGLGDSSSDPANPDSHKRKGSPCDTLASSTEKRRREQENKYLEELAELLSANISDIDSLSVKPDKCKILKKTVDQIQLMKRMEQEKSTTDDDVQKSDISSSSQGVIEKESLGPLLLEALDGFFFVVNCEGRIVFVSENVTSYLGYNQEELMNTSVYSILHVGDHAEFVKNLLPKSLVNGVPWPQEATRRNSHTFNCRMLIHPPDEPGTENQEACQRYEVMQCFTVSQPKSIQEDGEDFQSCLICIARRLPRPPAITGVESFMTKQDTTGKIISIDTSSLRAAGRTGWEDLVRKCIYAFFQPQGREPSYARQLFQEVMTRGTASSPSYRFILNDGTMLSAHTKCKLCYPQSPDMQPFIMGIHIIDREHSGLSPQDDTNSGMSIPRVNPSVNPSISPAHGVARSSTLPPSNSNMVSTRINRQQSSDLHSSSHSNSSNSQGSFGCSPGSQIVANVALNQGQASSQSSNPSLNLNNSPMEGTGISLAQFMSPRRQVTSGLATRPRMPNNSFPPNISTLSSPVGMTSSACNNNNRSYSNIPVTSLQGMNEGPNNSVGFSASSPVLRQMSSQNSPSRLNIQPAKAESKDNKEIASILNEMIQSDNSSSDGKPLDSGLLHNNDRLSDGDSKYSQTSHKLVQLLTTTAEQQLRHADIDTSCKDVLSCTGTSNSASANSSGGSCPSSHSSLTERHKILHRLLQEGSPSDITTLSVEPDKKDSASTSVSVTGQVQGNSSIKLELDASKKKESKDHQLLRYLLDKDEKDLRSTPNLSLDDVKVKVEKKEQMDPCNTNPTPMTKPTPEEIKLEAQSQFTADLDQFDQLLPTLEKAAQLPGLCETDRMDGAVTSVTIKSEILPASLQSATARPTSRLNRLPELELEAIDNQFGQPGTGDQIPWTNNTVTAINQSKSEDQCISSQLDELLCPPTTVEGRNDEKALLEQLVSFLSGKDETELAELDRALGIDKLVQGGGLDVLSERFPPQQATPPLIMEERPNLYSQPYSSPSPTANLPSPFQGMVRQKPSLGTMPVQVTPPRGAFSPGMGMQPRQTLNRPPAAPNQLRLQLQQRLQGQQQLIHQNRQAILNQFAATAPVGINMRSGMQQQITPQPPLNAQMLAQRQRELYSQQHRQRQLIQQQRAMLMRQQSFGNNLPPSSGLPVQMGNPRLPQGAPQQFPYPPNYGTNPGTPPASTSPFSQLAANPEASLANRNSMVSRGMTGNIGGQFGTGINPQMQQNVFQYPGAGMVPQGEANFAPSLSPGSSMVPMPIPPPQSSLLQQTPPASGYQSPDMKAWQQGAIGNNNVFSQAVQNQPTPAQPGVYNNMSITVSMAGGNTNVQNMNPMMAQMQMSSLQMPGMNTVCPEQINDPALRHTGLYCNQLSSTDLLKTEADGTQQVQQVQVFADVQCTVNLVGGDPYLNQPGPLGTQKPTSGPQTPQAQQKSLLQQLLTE
Large T antigen, sequence (P03070 whole entry): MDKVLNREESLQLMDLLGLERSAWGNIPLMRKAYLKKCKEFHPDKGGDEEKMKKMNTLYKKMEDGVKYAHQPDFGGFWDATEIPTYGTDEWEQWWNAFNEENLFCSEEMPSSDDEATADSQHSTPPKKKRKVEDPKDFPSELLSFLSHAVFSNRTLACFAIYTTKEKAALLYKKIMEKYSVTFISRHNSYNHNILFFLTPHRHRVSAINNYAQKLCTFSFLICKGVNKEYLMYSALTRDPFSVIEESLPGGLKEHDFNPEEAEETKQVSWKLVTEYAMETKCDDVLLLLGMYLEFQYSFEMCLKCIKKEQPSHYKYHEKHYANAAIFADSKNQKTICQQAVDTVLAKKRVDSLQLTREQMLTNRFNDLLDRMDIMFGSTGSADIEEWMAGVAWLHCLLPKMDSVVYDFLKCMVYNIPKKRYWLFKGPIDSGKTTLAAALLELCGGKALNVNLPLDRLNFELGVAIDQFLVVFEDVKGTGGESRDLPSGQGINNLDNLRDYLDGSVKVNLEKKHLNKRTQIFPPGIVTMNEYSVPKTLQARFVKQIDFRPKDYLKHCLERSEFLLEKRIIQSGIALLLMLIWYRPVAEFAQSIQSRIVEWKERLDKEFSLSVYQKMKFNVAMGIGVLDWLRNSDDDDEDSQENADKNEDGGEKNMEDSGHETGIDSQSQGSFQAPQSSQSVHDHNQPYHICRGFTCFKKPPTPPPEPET
Eukaryotic translation initiation factor 4E, sequence (P63073 whole entry, the tested form may be a part): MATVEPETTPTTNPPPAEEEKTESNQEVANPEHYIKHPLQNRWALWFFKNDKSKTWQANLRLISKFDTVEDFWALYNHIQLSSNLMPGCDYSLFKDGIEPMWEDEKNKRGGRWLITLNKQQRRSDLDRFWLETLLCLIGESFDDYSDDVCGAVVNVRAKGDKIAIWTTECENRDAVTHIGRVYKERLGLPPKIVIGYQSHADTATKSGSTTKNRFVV

In the case of `Nc1ccc(-c2ncc(-c3ccccc3)o2)cc1`, the AC50 [1] is reported as 0.171 µM (active), the EC50 [2] is reported as 0.178 µM (active) and the EC50 [3] is reported as 0.044 µM (active). For the same molecule, the EC50 [4] was < 0.1 µM (active), the EC50 [5] was < 0.1 µM (active) and the EC50 [6] was < 0.1 µM (active). The EC50 [7] was 0.07 µM (active).

In the case of `COc1ccc(C2C(C(=O)c3cccs3)=C(O)C(=O)N2c2nnc(C)s2)cc1OC` (configuration not stated), the Ki [8] is reported as > 66.7 µM (inactive), the EC50 [9] is reported as 5.19 µM (active) and the AC50 [10] is reported as > 350 µM (inactive). The EC50 [11] was 7.2 µM (active) and the AC50 [12] was 17.5 µM (active).

With `CCOC(=O)N1CCN(CC(=O)Nc2ccc([N+](=O)[O-])cc2C(=O)Nc2ccccc2F)CC1` the IC50 [13] was 51.6 µM (inactive).

With `CCn1c(=O)cc(SCC(=O)N2CCN(C(=O)c3ccco3)CC2)c2ccccc21` the IC50 [13] was > 80 µM (inactive), the EC50 [14] was > 79.4 µM (not active) and the EC50 [15] was > 79.4 µM (not active). For the same molecule, the EC50 [16] was > 79.4 µM (inactive).

In the case of `Cc1cc(N)ccc1N=Nc1c(C)n(C)n(-c2ccccc2)c1=O`, the IC50 [17] is reported as 33.9 µM (active) and the AC50 [10] is reported as 285 µM (active).

With `COc1ccc(-c2noc(N3CCC(C(=O)Nc4cccc(OC)c4)CC3)n2)cc1` the IC50 [13] was > 80 µM (inactive).

With `COc1ccc(-c2ccc(N(C)C)cc2)cc1[C@H]1[C@H]2C=CC[C@@H](C)[C@@H]2C(=O)N1Cc1ccccc1` the IC50 [13] was > 80 µM (inactive).

For `COc1cc(C(=O)N2CCN(c3cc(Cl)ccc3Cl)CC2)cc(OC)c1OC`, the EC50 [2] was 0.457 µM (active), the EC50 [3] was 0.352 µM (active) and the EC50 [4] was 0.148 µM (active). For the same molecule, the EC50 [5] was < 0.1 µM (active), the EC50 [6] was 0.164 µM (active) and the IC50 [18] was > 80 µM (inactive). For the same molecule, the EC50 [7] was 0.575 µM (active).

With `COc1ccc(OC)c(NC(=O)COC(=O)c2cc3c(s2)CCC3)c1` the IC50 [19] was 50 µM (inactive) and the IC50 [20] was 2.39 µM (active).

In the case of `CCCc1nc(SC)nc(O)c1C`, the AC50 [10] is reported as 81.7 µM (active).

With `CC(C)(C)c1ccc(OCc2ccc(C(=O)N/N=C3\CC4CC=CC34)cc2)cc1` (configuration not stated) the CC50 [21] was > 40 µM (active).
